Values of other authors in patent US20220296868A1, “INTRACRANIAL DELIVERY OF MEDICINAL SOLUTION” (InCube Labs, LLC, priority 2019, published 2022).

Key:
[1] = test system: plasma proteins
[2] = in vitro, human liver microsomes
[3] = test system: white blood cell count; details: in vivo
[4] = not given; remark: listed apart in the source
[5] = hydrochloride salt of topotecan

CC[C@@]1(O)C(=O)OCc2c1cc1n(c2=O)Cc2cc3c(CN(C)C)c(O)ccc3nc2-1 [topotecan]
binding to plasma proteins [1]: about 35% | lactone form (pH≤4): exclusively present | ring-opened hydroxy-acid form (physiologic pH): predominates | metabolism [2]: metabolized to an Ndemethylated metabolite | dose-limiting toxicity [3]: leukopenia | mean metabolite:parent AUC ratio ([4]; N-demethylated metabolite, total topotecan and topotecan lactone, following IV administration): about 3% | total exposure (AUC) versus dose ([4]; cancer subjects, 0.5 to 1.5 mg/m^2 as 30-minute IV infusion): approximately dose-proportional | solubility in water [5]: freely soluble
